Results taken from US12291504B2 (University of Pittsburgh—Of the Commonwealth System of …, priority 2018, dated 2025).
Like-named read-outs stand apart in the source and are kept apart here.

Assays:
SULT1A3 [1] = target: T1, SULT1A3 (Homo sapiens, UniProt P0DMM9); assay: Equilibrium binding studies, SULT1A3 intrinsic fluorescence titration; design: Wild-type and mutant SULT1A3 coding regions were inserted into a pGEX-6P expression vector; N-His/GST/MBP triple-tag (N, cleaved yes); made in house; host or cells: E. coli BL21(DE3)
T1 sequence (P0DMM9 whole entry): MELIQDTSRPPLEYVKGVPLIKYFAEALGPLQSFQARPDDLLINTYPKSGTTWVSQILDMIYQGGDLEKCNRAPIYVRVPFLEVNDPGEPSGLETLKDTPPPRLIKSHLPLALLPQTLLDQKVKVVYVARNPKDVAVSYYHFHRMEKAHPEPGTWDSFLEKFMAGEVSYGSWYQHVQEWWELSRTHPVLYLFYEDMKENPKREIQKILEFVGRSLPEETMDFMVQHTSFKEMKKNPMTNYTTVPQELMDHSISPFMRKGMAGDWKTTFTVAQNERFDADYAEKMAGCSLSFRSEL
Description: 4-Tam binding affinities were determined in the absence and presence of saturating PAP. Binding was monitored via ligand-induced changes in SULT1A3 intrinsic florescence (λex=290 nm, λem=340 nm). Fluorescence intensities are normalized relative to [4-Tam]=0. Each data-point is the average of two independent determinations. Conditions: SULT (150 nM, active sites), PAP (0 or 0.50 mM), KPO4 (50 mM), pH 7.5, 25±2° C. The line through the data represents the least-squares best fit to a model that assumes a binding stoichiometry of one 4-Tam per subunit.
Equilibrium Binding Studies. In all cases, ligand binding to SULT1A3 was monitored via changes in the intrinsic fluorescence of the enzyme (λex=290 nm, λem=340 nm). Conditions: SULT (50 nM, active sites), KPO4 (50 mM), pH 7.5, 25±2° C. Titrations were performed in triplicate. Data were averaged and least-squares fit using a model that assumes a single binding site per monomer (29-31). Ligand concentration was varied from 0.10-40×Kd.
As is seen in Eq. 6, Kiso and kcat ratios approach equivalence as Kiso becomes >>1. To assess the extent to which this equivalence holds for SULT1A3, Kiso values were determined as described previously (29-33). In short—As nucleotide binds and the cap closes, a pore forms at the acceptor-binding site. The affinity of an acceptor that is too large to pass through the pore is diminished by the presence of nucleotide, which fosters cap closure. At saturating nucleotide, the apparent affinity, Kapp, of such acceptors for the fully cap-closed enzyme is given by Equation 7 (29-33), where Kd is the affinity for the cap-open (nucleotide-free) form of the enzyme. Kapp=Kd×(1+Kiso) (7) Kapp and Kd were obtained by fitting titrations that monitor changes in SULT1A3 intrinsic fluorescence as a function of the concentration of 4-hydroxytamoxifen, a large acceptor (29) (see, FIG. 2). Titrations were performed at 0 and saturating PAP (0.50 mM, 17×Kd).

SULT1A3 [2] = target: T1, SULT1A3; assay: SULT1A3 inhibition studies, 1-HP initial-rate fluorescence assay; assay type: biochemical; design: Wild-type and mutant SULT1A3 coding regions were inserted into a pGEX-6P expression vector; N-His/GST/MBP triple-tag (N, cleaved yes); made in house; host or cells: E. coli BL21(DE3); inhibition: dose or concentration left out as unconfirmed; conditions: for inhibition of SULT1A3 (in words): Ki could not be determined
Description: The initial rates of SULT catalyzed 1-HP sulfonation are plotted as a function of inhibitor concentration, and are normalized relative to [inhibitor]=0. Enzyme activity was monitored by the sulfonation dependent change in 1-HP fluorescence (λex=325 nm, λem=370 nm). Less than 5% of the concentration-limiting substrate converted at the reaction endpoint was consumed during initial-rate measurements. Each point is the average of three independent determinations. Conditions: SULT (20 nM, active sites), PAPS (0.50 mM, 17×Km), 1-HP (5.0 μM, 61×Km), KPO4 (50 mM), pH 7.5, 25±2° C.
(§1) Initial-Rate Studies. Initial-rate parameters for the labeled or mutant SULT1A3 constructs were determined using a previously described 1-HP assay (25). Briefly, reactions were initiated by addition of PAPS (0.50 mM, 17×Km) to a solution containing enzyme (20 nM, active sites), 1-HP (2.0 μM, ˜24×Km), and KPO4 (50 mM), pH 7.5, 25±2° C. Reactions were monitored via fluorescence change associated with the conversion of 1-HP to 1-HP-S (λex=325 nm, λem=370 nm). Keq for the 1-HP sulfonation reaction is −250. Given the reaction conditions outlined above, ≥99% of 1-HP is converted to 1-HP-S, and ˜0.4% of PAPS is converted to PAP at equilibrium. […] Reaction progress curves were analyzed to obtain initial-rate parameters as described previously (26,27).
(§2) Inhibition studies. Inhibition parameters were determined under conditions identical to those described above (see, Initial-Rate Studies) except that [1-HP] was increased to 5.0 μM (˜61×Km) and inhibitor concentration was varied between 0.20-20×Ki. Ki was obtained using a least-squares fit to the following partial inhibition equation (25,28): v=kcat·(Ki+(1/kcat inh)·[I])/(Ki+[I]), where kcat inh is enzyme turnover at saturating substrates and allosteric inhibitor.
as §1, with “(47).” for “(25).”, “˜250.” for “−250.”, “(48,49).” for “(26,27).”
as §2, with “(47,50): V/Vax=(Ki+α·[I])/(Ki+[I]),” for “(25,28): v=kcat·(Ki+(1/kcat inh)·[I])/(Ki+[I]),”, “α” for “kcat inh”, “is percentage of” for “is”, “turnover remaining” for “turnover”

SULT1E1 = target: T2, SULT1E1 (Homo sapiens, UniProt P49888); assay: SULT1E1 inhibition test; assay type: biochemical; conditions: at 50 uM
T2 sequence (P49888 1-294): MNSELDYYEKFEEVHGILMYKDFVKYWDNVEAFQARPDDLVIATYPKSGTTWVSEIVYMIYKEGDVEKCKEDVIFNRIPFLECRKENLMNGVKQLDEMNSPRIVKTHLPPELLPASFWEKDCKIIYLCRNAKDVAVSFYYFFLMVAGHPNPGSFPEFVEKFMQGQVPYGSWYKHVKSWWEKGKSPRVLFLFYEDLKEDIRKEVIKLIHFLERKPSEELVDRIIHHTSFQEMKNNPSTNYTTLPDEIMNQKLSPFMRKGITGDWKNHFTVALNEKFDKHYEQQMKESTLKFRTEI

SULT2A1 = target: T3, SULT2A1 (Homo sapiens, UniProt Q06520); assay: SULT2A1 inhibition test; assay type: biochemical; conditions: at 50 uM
T3 sequence (Q06520 1-285): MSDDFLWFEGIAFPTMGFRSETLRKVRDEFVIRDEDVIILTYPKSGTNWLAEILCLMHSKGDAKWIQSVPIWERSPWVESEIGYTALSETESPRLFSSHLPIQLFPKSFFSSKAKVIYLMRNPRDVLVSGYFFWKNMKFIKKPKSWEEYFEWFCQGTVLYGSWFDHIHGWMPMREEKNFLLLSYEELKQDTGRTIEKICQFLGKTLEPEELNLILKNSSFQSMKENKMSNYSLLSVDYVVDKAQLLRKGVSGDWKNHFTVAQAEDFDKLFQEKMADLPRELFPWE

Rhesus Macaque (1A3) = Rhesus Macaque (1A3) (Macaca mulatta, UniProt A0A5F7ZQH3); assay: Inhibition of SULT1A3 homologues in different species: Rhesus Macaque; assay type: biochemical
Rhesus Macaque (1A3), sequence (A0A5F7ZQH3 1-295): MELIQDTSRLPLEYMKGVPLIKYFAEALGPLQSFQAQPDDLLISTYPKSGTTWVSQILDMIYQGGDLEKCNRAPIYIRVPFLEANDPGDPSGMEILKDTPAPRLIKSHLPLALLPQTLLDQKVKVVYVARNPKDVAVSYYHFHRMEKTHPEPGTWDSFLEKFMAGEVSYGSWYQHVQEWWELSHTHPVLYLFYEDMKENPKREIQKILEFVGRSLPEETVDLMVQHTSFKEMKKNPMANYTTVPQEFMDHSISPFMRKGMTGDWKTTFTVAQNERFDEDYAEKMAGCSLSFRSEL
Description: (§3) Compounds 12, 23 and 25 were also tested for Inhibition of SULT1A3 in different species.
(§4) Inhibition of SULT1A3 Homologues in Different Species. SULT1A3 is only expressed in humans and higher primates. SULT1D1 is the isoform expressed in dogs and rodents that sulfonates neurotransmitters and is most similar to SULT1A3. Three synthesized allosteres (12, 23, and 25) were tested against both 1A3 and 1D1 from different species in order to explore testing in animal models. […] Mice have been engineered such that their SULT1A1/2 enzymes have been knocked out and replaced with the human versions of those isoforms.

Green Monkey (1A3) = Green Monkey (1A3) (Chlorocebus sabaeus, UniProt Z9LO20H8W3); assay: Inhibition of SULT1A3 homologues in different species: Green Monkey; assay type: biochemical
Green Monkey (1A3), sequence (Z9LO20H8W3 1-295): as the sequence (A0A5F7ZQH3 1-295) above, with T7A, M15V, Y23C, K230R, F247Y, E278A counted along it
Description: as §3, §4

Rat (1D1) = target: T4, Rat (1D1) (Rattus norvegicus, UniProt G3V9R3); assay: Inhibition of SULT1A3 homologues in different species: Rat; assay type: biochemical
T4 sequence (G3V9R3 1-295): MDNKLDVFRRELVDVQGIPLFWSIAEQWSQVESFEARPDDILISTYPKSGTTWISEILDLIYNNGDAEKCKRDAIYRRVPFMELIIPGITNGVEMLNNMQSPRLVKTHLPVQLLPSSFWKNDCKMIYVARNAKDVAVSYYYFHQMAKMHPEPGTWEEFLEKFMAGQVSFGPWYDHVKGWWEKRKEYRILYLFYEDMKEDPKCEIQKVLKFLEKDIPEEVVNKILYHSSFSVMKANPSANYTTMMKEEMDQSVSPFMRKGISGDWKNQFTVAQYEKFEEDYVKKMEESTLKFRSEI
Description: as §3, §4

SULT1A1 = SULT1A1 (Homo sapiens, UniProt P50225); assay: SULT1A1 inhibition, 1-HP initial-rate assay; assay type: biochemical; conditions: ND = inhibition was not detected at 30 μM compound, parentheses one standard error
SULT1A1, sequence (P50225 whole entry): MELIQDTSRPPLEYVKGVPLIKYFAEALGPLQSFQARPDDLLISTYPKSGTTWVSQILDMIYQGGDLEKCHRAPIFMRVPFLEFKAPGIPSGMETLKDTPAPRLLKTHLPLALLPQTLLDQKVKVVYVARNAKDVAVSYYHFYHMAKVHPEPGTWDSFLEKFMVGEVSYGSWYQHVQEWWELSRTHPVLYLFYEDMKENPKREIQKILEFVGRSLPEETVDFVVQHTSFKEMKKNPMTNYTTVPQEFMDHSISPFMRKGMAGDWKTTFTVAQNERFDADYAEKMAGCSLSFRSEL
Description: as §2
as §2, with “(47,50): V/Vax=(Ki+α·[I])/(Ki+[I]),” for “(25,28): v=kcat·(Ki+(1/kcat inh)·[I])/(Ki+[I]),”, “α” for “kcat inh”, “is percentage of” for “is”, “turnover remaining” for “turnover”

Dog (1D1) = Dog (1D1) (Canis lupus familiaris, UniProt A0A8I3RXJ1); assay: Inhibition of SULT1A3 homologues in different species: Dog; assay type: biochemical
Dog (1D1), sequence (A0A8I3RXJ1 entry or part of it): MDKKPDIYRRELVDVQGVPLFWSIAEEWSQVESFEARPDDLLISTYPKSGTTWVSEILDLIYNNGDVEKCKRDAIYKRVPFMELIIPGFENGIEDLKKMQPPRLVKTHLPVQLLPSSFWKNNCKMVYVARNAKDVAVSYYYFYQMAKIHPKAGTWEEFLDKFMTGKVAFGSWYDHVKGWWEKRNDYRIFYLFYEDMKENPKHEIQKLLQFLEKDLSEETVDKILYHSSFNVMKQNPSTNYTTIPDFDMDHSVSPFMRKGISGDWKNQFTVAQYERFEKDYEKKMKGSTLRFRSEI
Description: as §4, with “Compounds 12, 23 and 25 were also tested for Inhibition of SULT1A3 in different species. Inhibition” for “Inhibition”

Mouse (1D1) = Mouse (1D1) (Mus musculus, UniProt Q3UZZ6); assay: Inhibition of SULT1A3 homologues in different species: Mouse; assay type: biochemical
Mouse (1D1), sequence (Q3UZZ6 whole entry): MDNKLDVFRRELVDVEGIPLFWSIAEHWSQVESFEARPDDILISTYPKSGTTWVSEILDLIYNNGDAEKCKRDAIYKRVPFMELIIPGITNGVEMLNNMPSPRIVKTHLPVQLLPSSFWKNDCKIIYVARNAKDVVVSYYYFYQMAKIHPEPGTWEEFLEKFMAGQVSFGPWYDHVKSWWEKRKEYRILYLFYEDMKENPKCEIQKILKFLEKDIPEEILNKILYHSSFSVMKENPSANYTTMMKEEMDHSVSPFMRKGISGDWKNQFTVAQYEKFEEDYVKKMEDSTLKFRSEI
Description: as §3, §4

[3] = read-out: Kd, determined by fluorescence titration

4-Hydroxytamoxifen [Compound 4-Tam, reference compound]
Kd (SULT1A3 [1]; saturating PAP 0.50 mM, SULT 150 nM, read-out: Kd (+PAP)): 5400 nM

CC(C)c1ccc2cc(CO)ccc2n1 [Compound 1, (2-Isopropylquinolin-6-yl)methanol]
Kd (SULT1A3 [1]; [3]): 160 nM
inhibition of SULT1A3 (in words) (SULT1A3 [2]): do not inhibit

O=S(=O)(O)Oc1ccc2ccc3cccc4ccc1c2c34 [Compound 1-HP-S, reference compound]
Kd (SULT1A3 [1]; read-out: Kd, affinity of 1-HP-S for SULT1A3): 240000 ± 30000 nM

CC(C)CCc1ccc2cc(CO)ccc2n1 [Compound 2]
Kd (SULT1A3 [1]; [3]): 87 nM
inhibition of SULT1A3 (in words) (SULT1A3 [2]): do not inhibit

CC(C)Cc1ccc2cc(/C=C/C(N)=O)cnc2n1 [Compound 23, (E)-3-(7-Isobutylnaphthyridin-3-yl)acrylamide]
inhibition of SULT1E1 (SULT1E1): no inhibition was detected
inhibition of SULT2A1 (SULT2A1): no inhibition was detected
affinity for SULT1A3 (in words) (SULT1A3 [2]): low nanomolar affinity
Ki (SULT1A3 [2]; ND = inhibition was not detected at 30 μM compound, parentheses one standard error, read-out: SULT1A3 Ki/μM): 0.0092 µM
Human (1A3) % inh (SULT1A3 [2]; parentheses one standard error): 97 (2) %
inhibition (SULT1A3 [2]; parentheses one standard error, read-out: SULT1A3 Enzyme Inhibition at Saturation/%): 96%
Ki (SULT1A3 [2]; standard error in neighbouring cell, read-out: Human (1A3) Ki): 0.0096 µM
inhibition at saturation (SULT1A3 [2]; text b218): almost complete inhibition
Rhesus Macaque (1A3) % inh (Rhesus Macaque (1A3)): 97 (2) %
Ki (Rhesus Macaque (1A3); parentheses one standard error): 12 nM
Green Monkey (1A3) % inh (Green Monkey (1A3)): 91 (4) %
Ki (Green Monkey (1A3); parentheses one standard error): 72 nM
Rat (1D1) % inh (Rat (1D1)): 37 (4) %
Ki (Rat (1D1); parentheses one standard error): 270 nM
Ki (SULT1A1): 3.1 µM
inhibition (SULT1A1; read-out: SULT1A1 Enzyme Inhibition at Saturation/%): 61%
Dog (1D1) % inh (Dog (1D1)): 81 (4) %
Ki (Dog (1D1); standard error in neighbouring cell): 117 nM
Mouse (1D1) % inh (Mouse (1D1)): 92 (3) %
Ki (Mouse (1D1); parentheses one standard error): 65 nM
